Measurements published in patent US11396497B2, “Proteasome inhibitors” (New Mexico Tech University Research Park Corporation, priority 2018, dated 2022).
Where two headings read alike, the source gives them in different places.

Legend:
[1] = target: T1, trypsin-like activity of the 26S proteasome (Homo sapiens, UniProt Q99436); assay: Proteasome assay, trypsin-like (T-L) activity, SUC-RLR-AMC, Jurkat cell lysate; assay type: biochemical; settings: ± S.D., read-out: Proteasome Inhibition T-L-like IC50
T1 construct: endogenous in cells; host or cells: Jurkat (ATCC TIB-152, E6-1 clone) cell lysate
T1 sequence (Q99436 44-277): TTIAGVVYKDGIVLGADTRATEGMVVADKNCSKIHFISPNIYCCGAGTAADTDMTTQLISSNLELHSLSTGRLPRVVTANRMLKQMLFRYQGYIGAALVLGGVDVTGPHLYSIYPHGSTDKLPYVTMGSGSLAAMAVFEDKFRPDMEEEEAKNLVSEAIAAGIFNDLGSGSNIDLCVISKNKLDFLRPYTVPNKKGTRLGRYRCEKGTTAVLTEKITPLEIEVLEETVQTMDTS
Method: (§1) The lysate was stored at −80° C. until the sample was used for the proteasome assay.
(§2) The compounds were diluted with lysis buffer; 10 μL of the compound-containing solution was added to the test wells at ten times the final concentration. […] The results are reported as the average of at least 3 technical replicates of IC50 values for proteasome inhibition.

[2] = target: T2, yeast proteasome yβ1 subunit (Saccharomyces cerevisiae, UniProt P25043+P38624); assay: Subunit selectivity, purified yeast proteasome yβ1; assay type: biochemical
T2 construct: measured using 8 μg/mL of purified yCP or iCP
Method: as §2
(§3) Values and standard deviations were calculated from an assay performed in biological triplicate.

[3] = target: T3, yeast proteasome yβ2 subunit (Saccharomyces cerevisiae, UniProt P25043+P25451); assay: Subunit selectivity, purified yeast proteasome yβ2; assay type: biochemical
T3 construct: measured using 8 μg/mL of purified yCP or iCP
Method: as §2, §3

[4] = target: T4, yeast proteasome yβ5 subunit (Saccharomyces cerevisiae, UniProt P23724+P30656); assay: Subunit selectivity, purified yeast proteasome yβ5; assay type: biochemical
T4 construct: measured using 8 μg/mL of purified yCP or iCP
Method: as §2, §3

[5] = target: T5, immunoproteasome iβ5 subunit (Homo sapiens, UniProt P20618+P28062); assay: Subunit selectivity, purified immunoproteasome iβ5; assay type: biochemical
T5 construct: purchased Enzo Life Sciences
Method: as §2, §3

MCF7 cells [6] = assay: MTT assay cytotoxicity MCF7; settings: Homo sapiens
Method: (§4) The cells were incubated at 37° C. in a humidified atmosphere with 5% CO2.
(§5) 100 μL of cells were added to each well of a 96 well microtiter plate at a concentration of 4×10^4 cells/mL and incubated overnight to allow proper adhesion. (RPMI 8226 cells were plated at 4×10^5 cells/mL). The cells were treated with the panel of test compounds at a series of concentrations, along with vehicle control DMSO and untreated cells as controls. After 48 h incubation, 20 μL of MTT reagent (3-(4,5-dimethylthiazol-2-yl)-2,5-diphenyltetrazolium bromide) in PBS (5 mg/mL) was added to each well of the plates. The plate was incubated for 2 h at 37° C. For adherent cell lines, the media was removed from each well of the plate and the resulting formazan crystals dissolved in 100 μL of DMSO. For RPMI 8226 cells, 200 ul of DMF/SDS mix (50% DMF. 10% w/v SDS pH<4) was used to solubilize the formazan crystals. Optical density (OD) at 490 nm was measured using a microplate reader. Cells treated with 1 μM phenyl arsine oxide (PAO) served as a positive cell-killing control. Technical replicates of these assays were performed in biological quadruplicate, and the three best values were used for analysis in order to eliminate outliers. Data presented are the average IC50 value calculated from at least 3 technical replicates with the corresponding standard deviation.

RPMI 8226 cells [7] = assay: MTT assay cytotoxicity RPMI 8226; settings: Homo sapiens
Method: as §4, §5

MDA-MB-231 cells [8] = assay: MTT assay cytotoxicity MDA-MB-231; settings: Homo sapiens
Method: as §4, §5

[9] = system: cancer cells (MCF7, MDA-MB-231, RPMI 8226); assay: MTT cytotoxicity, cell line not given
[10] = target: T6, chymotrypsin-like activity of the 26S proteasome (Homo sapiens, UniProt P28074); assay: Proteasome assay, chymotrypsin-like (ChT-L) activity, Suc-LLVY-AMC, Jurkat cell lysate; assay type: biochemical; settings: ± S.D., read-out: Proteasome Inhibition ChT-like IC50
T6 construct: endogenous in cells; host or cells: Jurkat (ATCC TIB-152, E6-1 clone) cell lysate
T6 sequence (P28074 60-263): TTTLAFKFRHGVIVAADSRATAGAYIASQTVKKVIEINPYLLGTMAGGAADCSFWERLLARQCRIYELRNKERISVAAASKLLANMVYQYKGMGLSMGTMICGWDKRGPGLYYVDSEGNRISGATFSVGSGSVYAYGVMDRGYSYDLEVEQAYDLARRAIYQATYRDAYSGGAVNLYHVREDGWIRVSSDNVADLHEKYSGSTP
Method: as §1, §2

MCF7 cells [11] = system: MCF7 cells
Method: as §4, §5

MDA-MB-231 cells [12] = system: MDA-MB-231 cells
Method: as §4, §5

RPMI 8226 cells [13] = system: RPMI 8226 cells
Method: as §4, §5

[14] = system: cancer cells (MCF7, MDA-MB-231, RPMI 8226)
Method: as §5

[15] = system: ubiquitinated proteins in MCF7 cells; assay: Western blot of ubiquitinated proteins; assay type: cell-based, human
Method: The cells were incubated for 9.5 hrs at 37° C. and 5% CO2. After washing with PBS twice, cells were scraped, pelleted and lysed with CytoBuster™ Protein Extraction Reagent \ containing 10 μM compound 8, 10 μM Na3VO4, 0.017 mg/mL Aprotinin, 1 mM PMSF, and 1% Protease Inhibitor Cocktail. Thereafter 30 μg of protein in sample buffer (50 mM Tris-HCl, 2% SDS, 10% Glycerol, 1% β-mercaptoethanol, 12.5 mM EDTA, 0.02% Bromophenol Blue, pH 6.8) that had been boiled at 90° C. for 5 min, was electrophoresed using 6/8% SDS-PAGE, and the protein transferred to a […] PVDF membrane using a BioRad Trans-Blot® SD at 15 V for 17 minutes. The membrane was blocked with 1× casein buffer (Diluted 1:10 in water from casein blocking buffer 10×), and probed with either the polyclonal rabbit anti β-Actin (1:500) or the polyclonal rabbit anti-ubiquitin antibody (1:300), and stained with goat anti-rabbit IgG (H+L) HRP conjugate (1:3000) secondary antibodies. Antibody-recognized bands were visualized by a standard horseradish peroxidase chemiluminescent assay with an ECL kit.

Jurkat cells [16] = assay: Apoptosis assay (Annexin V-FITC, flow cytometry); assay type: cell-based, human
Method: Apoptosis assay: 1 mL of Jurkat cells, at a density of 500,000 cells per milliliter, was added to 12 wells of a 24 well microtiter plate. Cells were treated immediately using a serial dilution of the synthesized proteasome inhibitors, the benzyl ester of Cystargolide B and the belactosin-cystargolide hybrid molecule. 10 μM Paclitaxel and 0.2 μg/mL Doxorubicin hydrochloride were used as positive apoptosis controls and non-treated cells were used as a negative control. The cells were then incubated for 24 h at 37° C. and 5% CO2. The following day, Annexin V-FITC conjugate was used to assay for the expression of phosphatidyl serine on the […] of the cellular membrane. The cells were briefly pelleted, aspirated, and resuspended in 300 μL of a reaction mixture containing 0.2 μL/mL of the Annexin V FITC solution, 2 mM CaCl2 to enable binding, and 2 μg/mL propidium iodide as an indicator of cell permeability. Each sample was incubated at 37° C. for 20 minutes, and then analyzed by flow cytometry. Single, whole cells were selected based on the forward and the side-scatter. With an excitation of 488 nm Annexin V-FITC binding was identified using FL1 533 nm emission. Propidium iodide staining was selected based on FL2 585 nm emission. […] Measurements were taken in biological triplicate for each sample, and the results were confirmed in technical triplicate.

Jurkat cells [17] = assay: Cell cycle assay (flow cytometry); assay type: cell-based, human
Method: Vybrant® DyeCycle™ Orange Stain was used for the cell cycle assay. The amount of fluorescence of DNA was used as a relative measure of a cell's stage in the cell cycle. 500,000 Jurkat cells were added to wells on a 24 well microtiter plate in 1 mL of supplemented RPMI media. The cells were then treated with Compound 1 (TABLE 2). Using the cells treated for 12 and 24 hours, stained DNA fluorescence was measured via flow cytometry. The cells were taken from each well, pelleted briefly, aspirated, resuspended in 300 μL of 2 μL/mL Vybrant® DyeCycle™ Orange Stain, incubated at 37° C. for 15 minutes, and analyzed by flow cytometry. Selecting whole cells based on forward and side scatter, stained DNA fluorescence was excited at 488 nm and measured at an emission wavelength of 585 nm, using amount of fluorescence as a means of distinguishing between populations of cells. Populations were identified as G1 for the peak associated with the lowest amount of fluorescence, S phase for increased fluorescence appearing as a shoulder off of the G1 peak, and G2/M for approximately 2 times the fluorescence as the G1 peak. Measurements were taken in biological triplicate and confirmed in technical triplicate.

[18] = MCF7, 48 h, read-out: Cytotoxicity MCF7 IC50
[19] = RPMI-8226, 48 h, read-out: Cytotoxicity RPMI 8226 IC50
[20] = MDA-MB-231, 48 h, read-out: Cytotoxicity MDA-MB-231 IC50

## CC[C@H](C)[C@@H]1C(=O)O[C@H]1C(=O)N[C@H](C(=O)N[C@@H](COCc1ccccc1)C(=O)OCc1ccccc1)C(C)C [Compound 10k, Benzyl O-benzyl-N-(((2R,3S)-3-((S)-sec-butyl)-4-oxooxetane-2-carbonyl)-L-valyl)-L-serinate]
[1]; Table 3, P2/P3 analogues
  IC50: 1.34 ± 0.334 µM
[2]
  IC50: 17.8 ± 2.07 µM
[3]
  IC50: > 50 µM
[4]
  IC50: 0.0245 ± 0.0039 µM
[5]; 8 μg/mL purified iCP, ± SD, read-out: iβ5 IC50
  IC50: 0.0091 ± 0.0027 µM
MCF7 cells [6]; [18]
  IC50: 0.284 ± 0.132 µM
MCF7 cells [6]; MCF7, read-out: Cytotoxicity MCF7 IC50
  IC50: 0.178 ± 0.0234 µM
RPMI 8226 cells [7]; [19]
  IC50: 0.05 ± 0.028 µM
RPMI 8226 cells [7]; RPMI-8226, read-out: Cytotoxicity RPMI 8226 IC50
  IC50: 0.0405 ± 0.00166 µM
MDA-MB-231 cells [8]; [20]
  IC50: 0.09 ± 0.051 µM
MDA-MB-231 cells [8]; MDA-MB-231, read-out: Cytotoxicity MDA-MB-231 IC50
  IC50: 0.0756 ± 0.00349 µM
[9]
  cytotoxicity IC50 for all three cell lines tested (in words): midrange nanomolar
  times less cytotoxic than carfilzomib: about 10 times

## CC[C@H](C)[C@@H]1C(=O)O[C@H]1C(=O)N[C@H](C(=O)N[C@@H](CC(C)C)C(=O)OCc1ccccc1)C(C)C [Compound 10i, Benzyl((2R,3S)-3-((S)-sec-butyl)-4-oxooxetane-2-carbonyl)-L-valyl-L-leucinate]
[10]; Table 3, P2/P3 analogues
  IC50: 0.0078 ± 0.0016 µM
[1]; Table 3, P2/P3 analogues
  IC50: 1.35 ± 0.172 µM
MCF7 cells [11]
  IC50: 0.351 ± 0.031 µM
MDA-MB-231 cells [12]
  IC50: 0.287 ± 0.136 µM
RPMI 8226 cells [13]
  IC50: 0.156 ± 0.096 µM
[14]
  cytotoxicity IC50 for all three cell lines tested (in words): midrange nanomolar

## CC(C)[C@H](NC(=O)[C@@H]1OC(=O)[C@H]1C(C)C)C(=O)N[C@H](C(=O)OCc1ccccc1)C(C)C [Compound 1]
[10]; Table 2, P1 analogues
  IC50: 0.0089 ± 0.0062 µM
[1]; Table 2, P1 analogues
  IC50: 1.95 ± 0.901 µM
[2]; 8 μg/mL purified yCP, ± SD, read-out: yβ1 IC50
  IC50: 4.18 ± 0.438 µM
[3]; 8 μg/mL purified yCP, ± SD, read-out: yβ2 IC50
  IC50: 14.6 ± 0.91 µM
[4]; 8 μg/mL purified yCP, ± SD, read-out: yβ5 IC50
  IC50: 0.0372 ± 0.0045 µM
[5]
  IC50: 0.0447 ± 0.0128 µM
[15]
  accumulation of ubiquitinated proteins: accumulation of ubiquitinated proteins
Jurkat cells [16]
  induction of apoptosis: induction of apoptosis
Jurkat cells [17]
  cell cycle arrest: cell cycle arrest in the G2/M phase
MCF7 cells [6]; [18]
  IC50: 8.09 ± 4.27 µM
RPMI 8226 cells [7]; [19]
  IC50: 1.31 ± 0.745 µM
MDA-MB-231 cells [8]; [20]
  IC50: 2.79 ± 0.464 µM
